Test results: patent US6339081B1, “Composition and use” (priority 1996, dated 2002)
Like-named read-outs stand apart in the source and are kept apart here.

Tests used:
Assay type in all cases: cell-based
[1] = system: Pseudomonas aeruginosa NCIB 10421; experiment: MIC and Fractional Inhibitory Concentration (FIC) in microtitre array
Description: The gram negative bacterium, Pseudomonas aeruginosa NCIB 10421 was grown in nutrient broth to stationary phase during 18 hours and contained approximately 10^9 organisms/ml. A 0.1% (v/v) inoculum was used to seed fresh nutrient broth and 100 μl was then added to each well of a microtitre plate, except for the first well which contained 200 μl.
Solutions of zinc acetate (ZnAc) and the 2:1 zinc complex of 3-hydroxy-4-methylthiazol-2(3H)-thione (ZHMT), respectively, were prepared in nutrient broth at twice the final concentration to be used in the microtitre array. A microtitre array was prepared with concentration of zinc acetate and ZHMT from twice the MIC down to zero concentration in a 10×10 array. Since the array contains only 96 wells, the highest and lowest concentration of the zinc acetate and ZHMT were omitted. The dilution of the ZHMT was doubled across the ordinate axis of the array by transferring 100 μl aliquots so that the final volume in each well was 200 μl. The microtitre plate was then incubated for 16 to 24 hours at 37° C. and the presence of bacterial growth assessed visually.
The FIC is defined as the sum of the fractional inhibitory concentration of each component. The FIC of the individual component is the ratio of the concentration of the component in the binary mixture divided by its MIC.

[2] = system: mixed bacterial culture; experiment: Preservation of unpreserved latex, repeated challenge with mixed bacterial culture; parameters: key to Viable bacteria, Third inoculum (days) 5 / Viable bacteria, Third inoculum (days) 7 / Viable bacteria, First inoculum (days) 3 / Viable bacteria, First inoculum (days) 5 / Viable bacteria, First inoculum (days) 7 / Viable bacteria, Second inoculum (days) 3 / Viable bacteria, Second inoculum (days) 5 / Viable bacteria, Second inoculum (days) 7 / Viable bacteria, Third inoculum (days) 3: C is confluent growth over the surface; − is no visible colonies; + is few visible colonies; ++ is clusters of discreet colonies; conditions: for antimicrobial activity in latex: zinc salt alone, 200 ppm (Table 1)
Description: Aliquots (25 parts) of unpreserved latex containing 50% by weight solids of a copolymer of 2-ethylhexylacrylate/acrylic acid at pH 8.5 were formulated with zinc acetate and the 2:1 zinc complex of 3-hydroxy4-methyl thiazol-2(3H)-thione in the amounts shown in Table 1 below. After formulation, each aliquot was stored at 20° C. for 1 week prior to inoculation with a mixed bacterial culture.
The bacterial culture was prepared by culturing the following seven bacteria in nutrient agar for 24 hours at 30° C.
Each of the individual bacterium was prepared at a concentration of 10^8 cells/ml in quarter strength Ringers solution by means of a Thoma counting chamber. The mixed inoculum was prepared by mixing equal volumes of the cultures containing the individual bacterium.
The latex aliquots were repeatedly inoculated at 0, 7 and 14 day intervals with 0.5 ml mixed inoculum (2×10^6 cells/ml) and incubated at 30° C. The number of viable bacteria was determined by streaking a small portion of each aliquot of latex onto nutrient agar after 3, 5 and 7 days followed by visible assessment after incubation for 2 days at 30° C.

[3] = system: contaminated matt paint millbase; experiment: Viable cells in contaminated matt paint millbase; parameters: key to Viable cells after (days) 5 / Viable cells after (days) 7 / Viable cells after (days) 14: C is confluent growth over the surface; − is no visible colonies; + is few visible colonies; ++ is clusters of discreet colonies
Description: 25 ml Aliquots of a contaminated matt paint millbase were formulated with the 2:1 zinc complex of 3-hydroxy-4-methylthiazol-2(3H)-thione and zinc acetate as shown in Table 2 below. The number of variable cells was determined by streaking a small portion of each aliquot of millbase onto nutrient agar after 5, 7 and 14 days. The number of cells was determined by visible assessment following incubation for 2 days at 30° C.

[4] = system: mixed inoculum; experiment: Preservation of styrene-acrylic emulsion paint, challenge with mixed inoculum; parameters: key to Bacterial growth, First Inoculum Days 4 / Bacterial growth, First Inoculum Days 7 / Bacterial growth, Second Inoculum Days 4 / Bacterial growth, Second Inoculum Days 7 / Bacterial growth, Second Inoculum Days 14 / Bacterial growth, Third Inoculum Days 4 / Bacterial growth, Third Inoculum Days 7 / Bacterial growth, Third Inoculum Days 21: − = no growth (no visible colonies); + = light growth (a few visible colonies); ++ = moderate growth (discrete colonies visible, some coalescence); +++ = dense, confluent growth (coalescing colonies visible throughout streak); conditions: for Bacterial growth, First Inoculum Days 4 / Bacterial growth, First Inoculum Days 7 / Bacterial growth, Second Inoculum Days 4 / Bacterial growth, Second Inoculum Days 7 / Bacterial growth, Second Inoculum Days 14 / Bacterial growth, Third Inoculum Days 4 / Bacterial growth, Third Inoculum Days 7 / Bacterial growth, Third Inoculum Days 21: emulsion paint
Description: An inoculum was prepared containing the following micro-organisms:
Each of the individual bacterium was cultured in nutrient agar and incubated at 30° C. for 24 hours followed by suspension in quarter strength Ringers solution by means of a Thoma countering chamber to give 10^8 cells/ml. A mixed inoculum was prepared by combining equal volumes.
An aliquot of the starch containing the ZHMT, and optionally zinc acetate, was inoculated weekly with 0.5 ml of the mixed inoculum on three occasions to give 2×10^6 cells/ml. The aliquots were then incubated at 30° C. and examined for bacterial growth by streaking a small sample onto nutrient agar and incubating at 30° C. for 2 days prior to visual examination.
Aliquots of a styrene-acrylic emulsion paint were treated with the 2:1 zinc complex of 3-hydroxy-4-methylthiazol-2(3H)-thione (ZHMT) optionally containing zinc acetate (ZnAc) or zinc oxide (ZnO). These aliquots were challenged with the mixed inoculum described in Example 5 and examined for bacterial growth as described in this previous example.

[5] = latex, Amount 200 ppm of each component present
[6] = latex, Amount 25 ppm of each component present
[7] = latex, Amount 50 ppm of each component present
[8] = latex, Amount 100 ppm of each component present
[9] = Amount 25 ppm of each component present
[10] = Amount 50 ppm of each component present
[11] = ZnAc replaced by the same weight of the metal salt

[O-]n1ccccc1=S.[O-]n1ccccc1=S.[Zn+2] [2:1 zinc complex of 1-hydroxypyridine-2-thione]
synergy with ZnAc ([1]; ZHMT replaced by this complex): no synergy

CC(=O)[O-].CC(=O)[O-].[Zn+2] [ZA, zinc acetate]
Viable bacteria, First inoculum (days) 3 [2, 5]: − | Viable bacteria, First inoculum (days) 5 [2, 5]: − | Viable bacteria, First inoculum (days) 7 [2, 5]: − | Viable bacteria, Second inoculum (days) 3 [2, 5]: ++ | Viable bacteria, Second inoculum (days) 5 [2, 5]: ++ | Viable bacteria, Second inoculum (days) 7 [2, 5]: ++ | Viable bacteria, Third inoculum (days) 3 [2, 5]: ++ | Viable bacteria, Third inoculum (days) 5 [2, 5]: ++ | Viable bacteria, Third inoculum (days) 7 [2, 5]: ++ | antimicrobial activity in latex [2]: no antimicrobial activity | effect on activity of the metal complex [3]: increases the bacterial activity of the metal complex | FIC [1]: 1 | Minimum Inhibitory Concentrations (MIC) [1]: 250 ppm

[Cl-].[Cl-].[Zn+2] [ZC, zinc chloride]
Viable bacteria, First inoculum (days) 3 [2, 5]: + | Viable bacteria, First inoculum (days) 5 [2, 5]: − | Viable bacteria, First inoculum (days) 7 [2, 5]: − | Viable bacteria, Second inoculum (days) 3 [2, 5]: ++ | Viable bacteria, Second inoculum (days) 5 [2, 5]: ++ | Viable bacteria, Second inoculum (days) 7 [2, 5]: ++ | Viable bacteria, Third inoculum (days) 3 [2, 5]: C | Viable bacteria, Third inoculum (days) 5 [2, 5]: C | Viable bacteria, Third inoculum (days) 7 [2, 5]: C | antimicrobial activity in latex [2]: no antimicrobial activity

Cc1csc(=S)n1[O-].Cc1csc(=S)n1[O-].[Zn+2] [ZHMT, 2:1 zinc complex of 3-hydroxy-4-methylthiazol-2(3H)-thione]
activity in the presence of both zinc salts ([2]; latex, especially after repeated challenge): significantly enhanced | Viable bacteria, First inoculum (days) 3 [2, 6]: − | Viable bacteria, First inoculum (days) 5 [2, 6]: − | Viable bacteria, First inoculum (days) 7 [2, 6]: − | Viable bacteria, Second inoculum (days) 3 [2, 6]: C | Viable bacteria, Second inoculum (days) 5 [2, 6]: C | Viable bacteria, Second inoculum (days) 7 [2, 6]: C | Viable bacteria, Third inoculum (days) 3 [2, 6]: C | Viable bacteria, Third inoculum (days) 5 [2, 6]: C | Viable bacteria, Third inoculum (days) 7 [2, 6]: C | Viable bacteria, First inoculum (days) 3 [2, 7]: ++ | Viable bacteria, First inoculum (days) 5 [2, 7]: − | Viable bacteria, First inoculum (days) 7 [2, 7]: − | Viable bacteria, Second inoculum (days) 3 [2, 7]: ++ | Viable bacteria, Second inoculum (days) 5 [2, 7]: + | Viable bacteria, Second inoculum (days) 7 [2, 7]: + | Viable bacteria, Third inoculum (days) 3 [2, 7]: C | Viable bacteria, Third inoculum (days) 5 [2, 7]: C | Viable bacteria, Third inoculum (days) 7 [2, 7]: C | Viable bacteria, First inoculum (days) 3 [2, 8]: ++ | Viable bacteria, First inoculum (days) 5 [2, 8]: − | Viable bacteria, First inoculum (days) 7 [2, 8]: − | Viable bacteria, Second inoculum (days) 3 [2, 8]: ++ | Viable bacteria, Second inoculum (days) 5 [2, 8]: + | Viable bacteria, Second inoculum (days) 7 [2, 8]: − | Viable bacteria, Third inoculum (days) 3 [2, 8]: ++ | Viable bacteria, Third inoculum (days) 5 [2, 8]: ++ | Viable bacteria, Third inoculum (days) 7 [2, 8]: ++ | Viable bacteria, First inoculum (days) 3 [2, 5]: + | Viable bacteria, First inoculum (days) 5 [2, 5]: − | Viable bacteria, First inoculum (days) 7 [2, 5]: − | Viable bacteria, Second inoculum (days) 3 [2, 5]: ++ | Viable bacteria, Second inoculum (days) 5 [2, 5]: + | Viable bacteria, Second inoculum (days) 7 [2, 5]: − | Viable bacteria, Third inoculum (days) 3 [2, 5]: ++ | Viable bacteria, Third inoculum (days) 5 [2, 5]: ++ | Viable bacteria, Third inoculum (days) 7 [2, 5]: ++ | Bacterial growth, First Inoculum Days 4 ([4]; Conc. 10 (ppm ZHMT)): − | Bacterial growth, First Inoculum Days 7 ([4]; Conc. 10 (ppm ZHMT)): − | Bacterial growth, Second Inoculum Days 4 ([4]; Conc. 10 (ppm ZHMT)): +++ | Bacterial growth, Second Inoculum Days 7 ([4]; Conc. 10 (ppm ZHMT)): +++ | Bacterial growth, Second Inoculum Days 14 ([4]; Conc. 10 (ppm ZHMT)): +++ | Bacterial growth, Third Inoculum Days 4 ([4]; Conc. 10 (ppm ZHMT)): +++ | Bacterial growth, Third Inoculum Days 7 ([4]; Conc. 10 (ppm ZHMT)): +++ | Bacterial growth, Third Inoculum Days 21 ([4]; Conc. 10 (ppm ZHMT)): +++ | Bacterial growth, First Inoculum Days 4 ([4]; Conc. 25 (ppm ZHMT)): − | Bacterial growth, First Inoculum Days 7 ([4]; Conc. 25 (ppm ZHMT)): − | Bacterial growth, Second Inoculum Days 4 ([4]; Conc. 25 (ppm ZHMT)): +++ | Bacterial growth, Second Inoculum Days 7 ([4]; Conc. 25 (ppm ZHMT)): +++ | Bacterial growth, Second Inoculum Days 14 ([4]; Conc. 25 (ppm ZHMT)): +++ | Bacterial growth, Third Inoculum Days 4 ([4]; Conc. 25 (ppm ZHMT)): +++ | Bacterial growth, Third Inoculum Days 7 ([4]; Conc. 25 (ppm ZHMT)): +++ | Bacterial growth, Third Inoculum Days 21 ([4]; Conc. 25 (ppm ZHMT)): +++ | Bacterial growth, First Inoculum Days 4 ([4]; Conc. 50 (ppm ZHMT)): − | Bacterial growth, First Inoculum Days 7 ([4]; Conc. 50 (ppm ZHMT)): − | Bacterial growth, Second Inoculum Days 4 ([4]; Conc. 50 (ppm ZHMT)): +++ | Bacterial growth, Second Inoculum Days 7 ([4]; Conc. 50 (ppm ZHMT)): +++ | Bacterial growth, Second Inoculum Days 14 ([4]; Conc. 50 (ppm ZHMT)): +++ | Bacterial growth, Third Inoculum Days 4 ([4]; Conc. 50 (ppm ZHMT)): +++ | Bacterial growth, Third Inoculum Days 7 ([4]; Conc. 50 (ppm ZHMT)): +++ | Bacterial growth, Third Inoculum Days 21 ([4]; Conc. 50 (ppm ZHMT)): +++ | Bacterial growth, First Inoculum Days 4 ([4]; Conc. 100 (ppm ZHMT)): − | Bacterial growth, First Inoculum Days 7 ([4]; Conc. 100 (ppm ZHMT)): − | Bacterial growth, Second Inoculum Days 4 ([4]; Conc. 100 (ppm ZHMT)): +++ | Bacterial growth, Second Inoculum Days 7 ([4]; Conc. 100 (ppm ZHMT)): +++ | Bacterial growth, Second Inoculum Days 14 ([4]; Conc. 100 (ppm ZHMT)): +++ | Bacterial growth, Third Inoculum Days 4 ([4]; Conc. 100 (ppm ZHMT)): +++ | Bacterial growth, Third Inoculum Days 7 ([4]; Conc. 100 (ppm ZHMT)): +++ | Bacterial growth, Third Inoculum Days 21 ([4]; Conc. 100 (ppm ZHMT)): +++ | Bacterial growth, First Inoculum Days 4 ([4]; Conc. 200 (ppm ZHMT)): − | Bacterial growth, First Inoculum Days 7 ([4]; Conc. 200 (ppm ZHMT)): − | Bacterial growth, Second Inoculum Days 4 ([4]; Conc. 200 (ppm ZHMT)): ++ | Bacterial growth, Second Inoculum Days 7 ([4]; Conc. 200 (ppm ZHMT)): ++ | Bacterial growth, Second Inoculum Days 14 ([4]; Conc. 200 (ppm ZHMT)): ++ | Bacterial growth, Third Inoculum Days 4 ([4]; Conc. 200 (ppm ZHMT)): +++ | Bacterial growth, Third Inoculum Days 7 ([4]; Conc. 200 (ppm ZHMT)): +++ | Bacterial growth, Third Inoculum Days 21 ([4]; Conc. 200 (ppm ZHMT)): +++ | ZHMT level at which the paint is preserved ([4]; styrene-acrylic emulsion paint): > 200 ppm | Viable cells after (days) 5 [3, 9]: C | Viable cells after (days) 7 [3, 9]: C | Viable cells after (days) 14 [3, 9]: C | Viable cells after (days) 5 [3, 10]: C | Viable cells after (days) 7 [3, 10]: C | Minimum Inhibitory Concentrations (MIC) ([1]; nutrient broth, 16 to 24 hours at 37° C., single component): 32 ppm | FIC ([1]; single component, relative conc. 1): 1

[Cl][Cu][Cl] [cupric chloride]
synergy with ZHMT [1, 11]: no synergy

[Cl][Fe]([Cl])[Cl] [ferric chloride]
effect on the ZHMT ([1]; ZnAc replaced with half the weight of the metal salt): antagonistic effect

[Cl-].[Cl-].[Mg+2] [magnesium chloride]
synergy with ZHMT [1]: no synergy

manganese chloride
synergy with ZHMT [1, 11]: no synergy
